These results are taken from publication PMC6078987, “Molecular insights into antibiotic resistance - how a binding protein traps albicidin” (Nature Communications, 2018).

≈ marks a conversion by molar mass, not a printed value. Where “and” joins values, the source holds several entries; their conditions need not be identical. Identical values can stand only once.

Assay [1] deals with Escherichia coli. Set-up: method as in PMID 17074789, PMID 25504839. The conditions noted are these: cited from earlier work.
Assay [2] addresses DNA gyrase. Further details: method as in PMID 17074789. The conditions noted are these: read-out: half maximal inhibitory concentration (IC50); cited from earlier work.
Assay [3] deals with AlbA. Set-up: method as in PMID 9493391. The conditions noted are these: read-out: previously reported Kd; cited from earlier work.
In assay [4] the target is AlbASNTD (Klebsiella oxytoca, UniProt Q8KRS7). The experiment in a line: Fluorescence quenching binding assay with AlbASNTD. The conditions noted are these: AlbASNTD 100 nM, n constrained to 1. How it is done: (§1) Fluorescence quenching measurements were performed by monitoring tryptophan fluorescence of AlbAS (20 nM), AlbAL (20 nM), AlbASNTD, and AlbASCTD (100 nM) on a FluoroMax 2 spectrometer from Horiba (Potsdam, Germany). The excitation wavelength was set to λexc = 280 nm. Emission spectra were recorded from λem = 290–450 nm with a scanning speed of 1 nm s^−1 and an integration time of 1 s. The excitation and emission slit widths were set to 8 and 4 nm, respectively. Proteins were solved in 50 mM sodium phosphate buffer with 150 mM NaCl and 0.01% DMSO at pH 6.8. All measurements were performed twice and the standard deviation is given for the Kd and the Hill factor n. Data evaluation was performed by integration of the emission band (318–410 nm for AlbAS, 316–412 nm for AlbAL, and 319–390 nm for AlbASNTD and AlbASCTD) for every titration step. The area under the curve (AUC) of the buffer blank (buffer with 0.01% DMSO) was subtracted from the measured titration data. The quenching factor was determined by subtraction of AUCs for each titration step from the AUC of the protein in the absence of ligand. For determination of the AlbAS– and AlbAL–albicidin Kd values, the data were fitted to Eq. (2).2 Y=Bmax[L]^n/Kdn+[L]^n where [L], n, and Bmax denote the total ligand concentration, the Hill coefficient, and the maximum binding capacity of the protein, respectively.

Assay [5] deals with AlbAL (Klebsiella oxytoca, UniProt A0A9P0U153). The experiment in a line: Fluorescence quenching binding assay with AlbAL. How it is done:
as §1

The subject of assay [6] is AlbAS in competition with gyrase construct GyrBA59. The experiment in a line: NMR-based in vitro competition experiment of AlbAS and GyrBA59. The format is binding, E. coli. The conditions noted are these: 30 µM each of GyrBA59, AlbAS and albicidin; MgCl2, ATP, pBR322. How it is done:
For the competition experiment with the DNA gyrase construct GyrBA59, 1.7 mM ATP was incubated with 3.4 mM MgCl2 for 10 min. Subsequently, 30 µM GyrBA59 and 3 µg supercoiled pBR322 plasmid DNA (Inspiralis) were added and incubated for another 10 min. Finally, 30 µM ^15N-labeled AlbAS were added to the mixture followed by 30 µM albicidin (10% D2O and 5% DMSO final concentration). Owing to the low protein concentrations (to achieve a 1:1 ratio of gyrase and AlbAS), a ^1H-^15N band-selective optimized flip-angle short-transient heteronuclear multiple quantum coherence (SOFAST HMQC)[44] experiment was performed. The ^1H-^15N SOFAST HMQC was recorded with 2048 scans and with acquisition times of 45 and 38 ms for the ^1H and ^15N dimensions, respectively. Measurements were performed at 303.2 K. The control experiment was performed under the same conditions but without the addition of MgCl2, ATP, pBR322 plasmid DNA, and GyrBA59.

Assay [7] relates to Staphylococcus aureus. Set-up: method as in PMID 17074789, PMID 25504839. The conditions noted are these: cited from earlier work.
Assay [8] concerns the target T1, AlbAS (Klebsiella oxytoca, UniProt Q8KRS7).
T1 sequence (Q8KRS7 1-221): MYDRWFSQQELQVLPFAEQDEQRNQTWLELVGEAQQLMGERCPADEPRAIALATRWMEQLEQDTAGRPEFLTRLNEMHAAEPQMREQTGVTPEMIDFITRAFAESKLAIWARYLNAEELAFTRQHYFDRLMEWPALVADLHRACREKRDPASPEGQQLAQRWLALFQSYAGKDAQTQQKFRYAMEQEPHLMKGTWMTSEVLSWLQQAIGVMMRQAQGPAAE
The experiment in a line: Fluorescence quenching binding assay (tryptophan fluorescence) with AlbAS. How it is done: as §1
For the determination of the Kd for AlbAS–compound 7 the data were fitted to Eq. (3).3 Y=Pt+L+Kd-Pt+L+Kd^2-4PtL/2 where Pt is the total protein concentration.

In assay [9] the target is T1, AlbAS. The experiment in a line: CD-detected thermal unfolding of AlbAS. Format: binding. The conditions noted are these: 1.5-fold ligand, 20 µM protein; AlbAS alone 66 °C. How it is done: For determination of the melting temperature and information on protein-ligand stability, CD measurements were performed on a J-815 CD spectrometer (Jasco, Groß-Umstadt, Germany). Protein samples (2.0 mM for AlbAS and 0.2 mM for AlbAL) were saturated with 1.5-fold albicidin and diluted to a protein concentration of 20 μM in order to ensure a final DMSO content of only 0.05% for AlbAS and 0.5% for AlbAL. A volume of 250 μL of the reaction mixture was transferred into a quartz cuvette with 1 mm path length. Six far-UV spectra were accumulated in a wavelength range of 195–300 nm (203–300 nm for AlbAL) at three different temperatures (10, 21, and 90 °C) with a scanning speed of 50 nm s^−1. For evaluation of the spectra the measured buffer blank (50 mM sodium hydrogen phosphate and 100 mM NaCl, pH 6.8) was subtracted from the averaged spectra. The temperature curves were recorded from 10–90 °C in 0.5 °C min^−1 steps while monitoring the ellipticity at 215 nm (218 nm for ALbAL). […] The melting temperatures of AlbAS, AlbAS–albicidin, AlbAS–compound 5, AlbAS–compound 7, AlbAL, and AlbAL–albicidin were determined by nonlinear regression of the measured data using Eq. (1). […] The Tm was thus determined by fitting the second transition representing the stabilized domain/species. […]

AlbAL, sequence (A0A9P0U153 entry or part of it): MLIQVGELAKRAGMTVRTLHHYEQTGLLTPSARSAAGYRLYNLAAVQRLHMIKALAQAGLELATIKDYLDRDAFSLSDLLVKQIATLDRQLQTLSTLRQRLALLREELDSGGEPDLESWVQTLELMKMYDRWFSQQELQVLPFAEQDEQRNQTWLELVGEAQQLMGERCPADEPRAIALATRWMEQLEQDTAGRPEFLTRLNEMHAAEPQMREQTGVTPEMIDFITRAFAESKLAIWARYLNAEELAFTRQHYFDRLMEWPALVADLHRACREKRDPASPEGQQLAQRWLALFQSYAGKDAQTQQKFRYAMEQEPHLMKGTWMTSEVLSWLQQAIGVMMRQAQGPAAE

One may read the MIC as the lowest concentration found to suppress growth. By Kd is commonly meant the concentration at which binding is half-saturated. With `COc1c(NC(=O)c2ccc(NC(=O)c3ccc(NC(=O)[C@H](CC#N)NC(=O)c4ccc(NC(=O)/C(C)=C/c5ccc(O)cc5)cc4)cc3)c(OC)c2O)ccc(C(=O)O)c1O` [albicidin], the values for the minimal inhibitory concentration (MIC) in assay [1] and in assay [7] were 0.063 µg/mL (≈ 0.0747 µM) and 4.0 µg/mL (≈ 4.75 µM), respectively. Moreover, the IC50 in assay [2] is 40 nM. For the same molecule, the dissociation constant (Kd) was 64 nM in [3]; 3400 ± 200 nM in assay [4]; 7.4 ± 0.9 nM in assay [5]; ≤ 5.6 nM and 5.6 nM in assay [8] (AlbAS 20 nM, fluorescence quenching, pH 6.8). Besides, the “Hill coefficient, n” value in assay [5] (AlbAL 20 nM, fluorescence quenching) stood at 2.0 ± 0.2; in [8] (AlbAS 20 nM, fluorescence quenching) it was 3.0 ± 0.5. For the same molecule, the “competition between AlbAS and GyrBA59 for the ligand (in words)” value in assay [6] is “AlbAS fully populated the albicidin-bound state”. The “quenching of AlbAS emission” value in [8] (maximal quenching by ligand) turned out to be 100%. Moreover, the “melting temperature Tm of AlbAS upon ligand binding” value in assay [9] came out at 81 °C.
